Patent US11986471B2, “Compounds and methods of use” (Tango Therapeutics, Inc., priority 2018, dated 2024)

Experiments:
Assay type in all cases: biochemical
PRMT5 [1] = target: T1, PRMT5 (Homo sapiens, UniProt O14744); assay: PRMT5 IC50 assay in the presence of MTA as cofactor; conditions: for IC50: PRMT5, MTA as cofactor
T1 construct: purchased Viva (custom protein)
Procedure, shortened: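 Three cofactor conditions are run: SAM-bound, MTA-bound and cofactor-free enzyme. IC50 is read from each; for the SAM and MTA arms it is divided by 1.5 and 13.5 respectively to give Ki.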

PRMT5 [2] = target: T1, PRMT5; assay: PRMT5 IC50 assay in the presence of SAM as cofactor
Procedure, shortened: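 Enzyme: human PRMT5. Conditions: plus SAM, plus MTA, or cofactor-free. Output: IC50 (μM); Ki via IC50/1.5 (SAM) or IC50/13.5 (MTA).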

PRMT5 [3] = target: T1, PRMT5; assay: PRMT5 IC50 assay with no cofactor
Procedure, shortened: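 Potency against PRMT5 is compared across cofactor states, where IC50 equals Ki×1.5 with SAM present and Ki×13.5 with MTA present.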

[4] = ratio between the Ki in the presence of SAM and the Ki in the presence of MTA

T1 sequence (O14744 whole entry): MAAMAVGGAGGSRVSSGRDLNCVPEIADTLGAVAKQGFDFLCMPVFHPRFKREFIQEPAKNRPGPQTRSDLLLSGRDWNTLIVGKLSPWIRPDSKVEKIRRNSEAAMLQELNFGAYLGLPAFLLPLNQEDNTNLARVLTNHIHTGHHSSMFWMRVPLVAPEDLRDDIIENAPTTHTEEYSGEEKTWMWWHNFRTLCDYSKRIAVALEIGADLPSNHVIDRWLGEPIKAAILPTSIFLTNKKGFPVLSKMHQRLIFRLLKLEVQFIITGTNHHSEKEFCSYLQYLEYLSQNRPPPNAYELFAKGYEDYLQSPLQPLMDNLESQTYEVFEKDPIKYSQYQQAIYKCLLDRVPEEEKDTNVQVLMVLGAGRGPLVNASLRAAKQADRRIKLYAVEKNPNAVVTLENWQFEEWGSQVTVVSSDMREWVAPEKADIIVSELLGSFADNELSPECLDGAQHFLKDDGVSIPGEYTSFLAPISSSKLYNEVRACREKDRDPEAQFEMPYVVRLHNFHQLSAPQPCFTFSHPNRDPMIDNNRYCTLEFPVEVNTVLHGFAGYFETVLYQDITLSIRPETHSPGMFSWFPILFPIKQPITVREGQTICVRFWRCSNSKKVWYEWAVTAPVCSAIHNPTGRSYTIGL
T1 sequence (Q9BQA1 whole entry partner): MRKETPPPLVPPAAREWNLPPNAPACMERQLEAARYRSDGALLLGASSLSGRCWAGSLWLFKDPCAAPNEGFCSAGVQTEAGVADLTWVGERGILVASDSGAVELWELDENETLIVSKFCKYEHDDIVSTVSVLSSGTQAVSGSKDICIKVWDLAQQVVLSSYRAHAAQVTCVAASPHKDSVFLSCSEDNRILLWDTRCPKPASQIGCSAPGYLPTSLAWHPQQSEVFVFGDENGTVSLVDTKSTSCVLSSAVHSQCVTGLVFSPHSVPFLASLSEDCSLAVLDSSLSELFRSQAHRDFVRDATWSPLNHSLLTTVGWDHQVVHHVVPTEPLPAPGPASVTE

**Q.** For CC(=O)N1CC(Nc2cc(C(=O)NC[C@H](O)CN3CCc4cc(OCc5cnco5)ccc4C3)ncn2)C1 [Compound 562, (S)-6-((1-acetylazetidin-3-yl)amino)-N-(2-hydroxy-3-(6-(oxazol-5-ylmethoxy)-3A-dihydroisoquinolin-2(1H)-yl)propyl)pyrimidine-4-carboxamide], which IC50 (PRMT5 [1]) is on record?
**A.** 50 to 500 nM

**Q.** What about the “SAM/MTA Ratio” value (PRMT5 [1]; [4]) of the same molecule?
**A.** A (a Ki ratio greater than or equal to 10 fold between the Ki in the presence of SAM and the Ki in the presence of MTA)

**Q.** What about the IC50 (PRMT5 [2]) of the same molecule?
**A.** 500 to 5000 nM

**Q.** What about the IC50 (PRMT5 [3]) of the same molecule?
**A.** ≥ 5000 nM

**Q.** Which results are given for Cn1nccc1COc1ccc2c(c1)CCN(C[C@@H](O)CNC(=O)c1cc(NC3CCC3)ccn1)C2 [Compound 542, (S)-4-(cyclobutylamino)-N-(2-hydroxy-3-(6-((1-methyl-1H-pyrazol-5-yl)methoxy)-3N-dihydroisoquinolin-2(1H)-yl)propyl)picolinamide]?
**A.** IC50 (PRMT5 [1]): 50 to 500 nM; SAM/MTA Ratio (PRMT5 [1]; [4]): A (a Ki ratio greater than or equal to 10 fold between the Ki in the presence of SAM and the Ki in the presence of MTA); IC50 (PRMT5 [2]): 500 to 5000 nM; IC50 (PRMT5 [3]): ≥ 5000 nM

**Q.** COCCN(C)c1cc(NC2CCN(C(C)=O)CC2)cc(C(=O)NC[C@H](O)CN2CCc3cc(OCc4ocnc4C)ccc3C2)c1 (single isomer, unassigned) [Compound 649] was tested. Which IC50 (PRMT5 [1]) did it give?
**A.** 500 to 5000 nM

**Q.** What about the “SAM/MTA Ratio” value (PRMT5 [1]; ratio between Ki in the presence of SAM and Ki in the presence of MTA) of the same molecule?
**A.** A (a Ki ratio greater than or equal to 10 fold between the Ki in the presence of SAM and the Ki in the presence of MTA)

**Q.** What about the IC50 (PRMT5 [2]) of the same molecule?
**A.** 500 to 5000 nM

**Q.** What about the IC50 (PRMT5 [3]; read-out: No Co-factor IC50) of the same molecule?
**A.** ≥ 5000 nM

**Q.** For CC(=O)N1CCC(Nc2cccc(C(=O)NC[C@H](O)CN3CCc4cc(OCc5cnco5)ccc4C3)c2)C1 (stereo partly drawn) [Compound 558, 3-((1-acetylpyrrolidin-3-yl)amino)-N—((S)-2-hydroxy-3-(6-(oxazol-5-ylmethoxy)-3,4-dihydroisoquinolin-2(1H)-yl)propyl)benzamide], which IC50 (PRMT5 [1]) is on record?
**A.** 500 to 5000 nM

**Q.** And the “SAM/MTA Ratio” value (PRMT5 [1]; [4])?
**A.** A (a Ki ratio greater than or equal to 10 fold between the Ki in the presence of SAM and the Ki in the presence of MTA)

**Q.** And the IC50 (PRMT5 [2])?
**A.** 500 to 5000 nM

**Q.** What about the IC50 (PRMT5 [3]) of the same molecule?
**A.** ≥ 5000 nM

**Q.** How did the IC50 (PRMT5 [1]) turn out when CCCN(C)c1cc(C(=O)NC[C@H](O)CN2CCc3c(ccc(OCc4cnco4)c3Cl)C2)cc(NC2CCC2)n1 [Compound 453, (S)—N-(3-(5-chloro-6-(oxazol-5-ylmethoxy)-3N-dihydroisoquinolin-2(1H)-yl)-2-hydroxypropyl)-2-(cyclobutylamino)-6-(methyl(propyl)amino)isonicotinamide] was run?
**A.** 500 to 5000 nM

**Q.** What about the “SAM/MTA Ratio” value (PRMT5 [1]; [4]) of the same molecule?
**A.** A (a Ki ratio greater than or equal to 10 fold between the Ki in the presence of SAM and the Ki in the presence of MTA)

**Q.** And the IC50 (PRMT5 [2])?
**A.** 500 to 5000 nM

**Q.** What about the IC50 (PRMT5 [3]) of the same molecule?
**A.** ≥ 5000 nM

**Q.** How did the IC50 (PRMT5 [1]) turn out when Cc1c(OCc2cnco2)ccc2c1CCN(C[C@@H](O)CNC(=O)c1ccnc(Nc3cccnc3)c1)C2 [Compound 531, N-[(2S)-2-hydroxy-3-{5-methyl-6-[(1,3-oxazol-5-yl)methoxy]-1,2,3,4-tetrahydroisoquinolin-2-yl}propyl]-2-[(pyridin-3-yl)amino]pyridine-4-carboxamide] was run?
**A.** 500 to 5000 nM

**Q.** What about the “SAM/MTA Ratio” value (PRMT5 [1]; [4]) of the same molecule?
**A.** A (a Ki ratio greater than or equal to 10 fold between the Ki in the presence of SAM and the Ki in the presence of MTA)

**Q.** What about the IC50 (PRMT5 [2]) of the same molecule?
**A.** 500 to 5000 nM

**Q.** What about the IC50 (PRMT5 [3]) of the same molecule?
**A.** ≥ 5000 nM

**Q.** Which results are given for Cc1ncoc1COc1ccc2c(c1)CCN(C[C@@H](O)CNC(=O)c1cc(NC3CCN(C)C(=O)C3)ncn1)C2 (stereo partly drawn) [Compound 613, N-[(2S)-2-hydroxy-3-{6-[(4-methyl-1,3-oxazol-5-yl)methoxy]-1,2,3,4-tetrahydroisoquinolin-2-yl}propyl]-6-[(1-methyl-2-oxopiperidin-4-yl)amino]pyrimidine-4-carboxamide]?
**A.** IC50 (PRMT5 [1]): 50 to 500 nM; IC50 (PRMT5 [2]): 50 to 500 nM; IC50 (PRMT5 [3]): ≥ 5000 nM

**Q.** With CNC(=O)CN1CCC(Nc2cc(C(=O)NC[C@H](O)CN3CCc4c(ccc(OCc5cnco5)c4C)C3)ncn2)CC1 [Compound 524, N-[(2S)-2-hydroxy-3-{5-methyl-6-[(1,3-oxazol-5-yl)methoxy]-1,2,3,4-tetrahydroisoquinolin-2-yl}propyl]-6-{[1-[(methylcarbamoyl)methyl]piperidin-4-yl}amino)pyrimidine-4-carboxamide] as the molecule, how does the IC50 (PRMT5 [1]) read?
**A.** 500 to 5000 nM

**Q.** And the “SAM/MTA Ratio” value (PRMT5 [1]; [4])?
**A.** A (a Ki ratio greater than or equal to 10 fold between the Ki in the presence of SAM and the Ki in the presence of MTA)

**Q.** What about the IC50 (PRMT5 [2]) of the same molecule?
**A.** 500 to 5000 nM

**Q.** And the IC50 (PRMT5 [3])?
**A.** ≥ 5000 nM
